Like-named read-outs stand apart in the source and are kept apart here.
Columns and labels:
[1] = test system: serum cholesterol; test: Testing of Normal Rats: serum cholesterol, Example 8; type: in vivo, Sprague Dawley male rats; conditions: oral 20 mg/kg/day
Experimental: (§1) In Example 8 a set of six Sprague Dawley male rats, each weighing approximately 350 grams, were orally treated with a concentration of 20 mg per kilogram of rat weight per day, again suspended in a 1% aqueous solution of CMC. The dosage was applied orally by an intubation needle. On days 9 and 16 serum cholesterol and serum triglycerides blood levels of the rats were measured utilizing th procedure of Example 7.
(§2) A control group of six similar Sprague Dawley male rats were untreated but tested on Days 9 and 16 in accordance with the tests administered to the treated rats. Table 6 reports the percent control based on the decrease in serum cholesterol and serum triglycerides of the treated rats compared to the levels measured in the untreated control group.

[2] = test system: serum triglycerides; test: Testing of Normal Rats: serum triglycerides, Example 8; type: in vivo, Sprague Dawley male rats; conditions: oral 20 mg/kg/day
Experimental: as §1, §2

[3] = target: T1, HMG CoA Reductase (Mus musculus, UniProt Q01237); test: In vitro enzyme activity, liver homogenate: HMG CoA reductase; type: biochemical, CF1 male mouse; conditions: ± SD, N = 6, read-out: Percent Control, in vitro enzyme activity
T1 construct: 10% homogenates of CF1 male mouse liver; from tissue; host or cells: CF1 male mouse liver, 10% homogenate
T1 sequence (Q01237 1-887): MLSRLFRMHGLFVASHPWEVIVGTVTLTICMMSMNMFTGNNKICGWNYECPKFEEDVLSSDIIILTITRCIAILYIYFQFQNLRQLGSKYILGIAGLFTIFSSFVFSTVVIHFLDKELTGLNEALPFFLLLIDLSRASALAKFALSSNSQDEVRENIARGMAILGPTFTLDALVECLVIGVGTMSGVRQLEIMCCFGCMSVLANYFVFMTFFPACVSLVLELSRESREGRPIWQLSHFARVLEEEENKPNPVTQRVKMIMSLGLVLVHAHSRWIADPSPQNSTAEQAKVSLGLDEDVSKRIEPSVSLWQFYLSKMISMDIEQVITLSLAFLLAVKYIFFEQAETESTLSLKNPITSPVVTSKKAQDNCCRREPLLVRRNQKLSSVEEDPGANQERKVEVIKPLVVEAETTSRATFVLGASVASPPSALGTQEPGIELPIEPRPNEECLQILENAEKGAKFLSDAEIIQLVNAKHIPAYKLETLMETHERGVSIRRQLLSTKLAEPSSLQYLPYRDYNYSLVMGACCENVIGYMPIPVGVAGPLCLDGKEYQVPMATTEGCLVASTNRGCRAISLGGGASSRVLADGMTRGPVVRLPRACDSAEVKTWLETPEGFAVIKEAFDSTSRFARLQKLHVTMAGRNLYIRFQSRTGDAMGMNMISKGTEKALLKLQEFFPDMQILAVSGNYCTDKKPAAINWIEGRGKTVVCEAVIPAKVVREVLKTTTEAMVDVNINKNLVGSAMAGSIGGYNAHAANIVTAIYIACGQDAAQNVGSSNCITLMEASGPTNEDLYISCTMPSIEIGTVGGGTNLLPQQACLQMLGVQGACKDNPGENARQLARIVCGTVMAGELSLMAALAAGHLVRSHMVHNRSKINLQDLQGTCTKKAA
Experimental: (§3) In vitro enzymatic studies were undertaken using 10% homogenates of CF1 male mouse liver with […] of compound 3,4,5,6-dibenzohomopiperidine. In addition, in vivo enzymatic studies were performed, again using 10% liver homogenates (prepared in 0.25 M sucrose plus 0.001 M (ethylenedinitrilo)-tetraacetic acid, ph 7.25 from CF1 male mice obtained after administering 3,4,5,6-dibenzohomopiperidine for 16 days at a concentration ranging from 10 to 60 mg/kg/day, intraperitoneally.
(§4) The following enzyme activities were determined by following standard literature procedures: acetyl coenzyme synthetase; adenosine triphosphate dependent citrate lyase; mitochondrial citrate exchange; cholesterol/7 hydroxylase; 3-hydroxy-3-methyl-glutaryl coenzyme A reductase; acetyl coenzyme A carboxylase activity; fatty acid synthetase activity; sn-glycerol-3-phosphate acyl transferase activity; phosphatidate phosphohydrolase activity; cholesterol acyl transferase; and heparin activated hepatic lypoprotein lipase. Protein was determined for all enzyme assays by the Lowry et al. technique (J. Biol. Chem, 193, 265 (1951)).

[4] = test system: Acetyl CoA Synthetase; test: In vivo enzyme activity, liver of treated mice: acetyl CoA synthetase; design: species or system CF1 male mice; conditions: 16 days, ± SD
Experimental: as §3, §4

[5] = test system: sn-Glycerol-3-Phosphate Acyl Transferase; test: In vivo enzyme activity, liver of treated mice: sn-glycerol-3-phosphate acyl transferase; design: species or system CF1 male mice; conditions: 16 days, ± SD
Experimental: as §3, §4

[6] = test system: Liver; test: Lipid Extraction Studies in Rats, Example 11: liver; type: in vivo, Sprague Dawley male rats; conditions: oral 20 mg/kg/day, fourteen days, ± SD
[7] = test system: Small Intestine; test: Lipid Extraction Studies in Rats, Example 11: small intestine; type: in vivo, Sprague Dawley male rats; conditions: oral 20 mg/kg/day, fourteen days, ± SD
[8] = test system: HDL; test: Lipoprotein fractions in Rats, Example 11: HDL; type: in vivo, Sprague Dawley male rats; conditions: oral 20 mg/kg/day, fourteen days, ± SD
Experimental: A group of six Sprague Dawley male rats were treated with 20 mg/kg/day of 3,4,5,6-dibenzohomopiperidine. The treatment was applied orally. An equal number of Sprague Dawley male rats, having approximately the same weight, were utilized as an untreated control. At the end of fourteen days the control and treated rats were sacrificed. Blood was collected from the abdominal aorta and lipoprotein fractions were obtained by the method of Hatch and Lees [Adv. Lipid Rees., 6, 1 (1968)] and Havel et al. [J. Clin Invest., 34, 1345 (1955)]. Each of the fractions were analyzed for cholesterol, triglycerides, neutral lipids, phospholipids and protein levels.

[9] = test system: serum cholesterol; test: Testing of Normal Mice: serum cholesterol (modified Liebermann-Burchard), Example 7; type: in vivo, CF1 male mice; conditions: Mus musculus; for response vs control in vivo at 10 mg/kg: 10 mg/kg/day ip; for response vs control in vivo at 40 mg/kg: 40 mg/kg/day ip; for response vs control in vivo at 60 mg/kg: 60 mg/kg/day ip
[10] = test system: serum triglycerides; test: Testing of Normal Mice: serum triglycerides (BioDynamics kit), Example 7; type: in vivo, CF1 male mice; conditions: Mus musculus, 384 h, day 16, ± SD
[11] = 216 h, day 9, ± SD, read-out: Serum Cholesterol Control, % Day 9
[12] = 384 h, day 16, ± SD, read-out: Serum Cholesterol Control, % Day 16

c1ccc2c(c1)CNCc1ccccc1-2 [Compound 3, 3,4,5,6-dibenzohomopiperidine]
% Control Serum Cholesterol Day 9 ([1]; day 9, ± SD): 75 ± 5% | % Control Serum Cholesterol Day 16 ([1]; day 16, ± SD): 64 ± 3% | % Control Serum Triglycerides Day 9 ([2]; day 9): 54% | % Control Serum Triglycerides Day 16 ([2]; day 16): 54% | remaining activity at 50 µM ([3]; 50 μM): 95 ± 5% | remaining activity at 100 µM ([3]; 100 μM): 151 ± 9% | remaining activity at 200 µM ([3]; 200 μM): 255 ± 8% | Percent Control, in vivo enzyme activity ([4]; 10 mg/kg/day ip): 64 ± 6% | Percent Control, in vivo enzyme activity ([4]; 20 mg/kg/day ip): 95 ± 6% | Percent Control, in vivo enzyme activity ([4]; 40 mg/kg/day ip): 103 ± 8% | Percent Control, in vivo enzyme activity ([4]; 60 mg/kg/day ip): 81 ± 6% | Percent Control, in vivo enzyme activity ([5]; 10 mg/kg/day ip): 45 ± 7% | Percent Control, in vivo enzyme activity ([5]; 20 mg/kg/day ip): 68 ± 8% | Percent Control, in vivo enzyme activity ([5]; 40 mg/kg/day ip): 62 ± 6% | Percent Control, in vivo enzyme activity ([5]; 60 mg/kg/day ip): 81 ± 6% | Cholesterol, concentration as a function of control [6]: 65 ± 5% | Mg Lipid Wt, concentration as a function of control [6]: 89 ± 7% | Neutral Lipids, concentration as a function of control [6]: 80 ± 5% | Phospholipids, concentration as a function of control [6]: 98 ± 9% | Protein, concentration as a function of control [6]: 97 ± 7% | Triglycerides, concentration as a function of control [6]: 76 ± 6% | Cholesterol, concentration as a function of control [7]: 130 ± 6% | Mg Lipid Wt, concentration as a function of control [7]: 143 ± 5% | Neutral Lipids, concentration as a function of control [7]: 149 ± 6% | Phospholipids, concentration as a function of control [7]: 119 ± 6% | Protein, concentration as a function of control [7]: 118 ± 7% | Triglycerides, concentration as a function of control [7]: 130 ± 6% | Cholesterol, concentration as a function of control [8]: 106 ± 5% | Neutral Lipids, concentration as a function of control [8]: 59 ± 5% | Phospholipids, concentration as a function of control [8]: 64 ± 3% | Protein, concentration as a function of control [8]: 106 ± 7% | Triglycerides, concentration as a function of control [8]: 40 ± 2% | response vs control in vivo at 10 mg/kg [9, 11]: 61 ± 5% | response vs control in vivo at 40 mg/kg [9, 11]: 67 ± 6% | response vs control in vivo at 60 mg/kg [9, 11]: 69 ± 5% | response vs control in vivo at 10 mg/kg [9, 12]: 50 ± 5% | response vs control in vivo at 40 mg/kg [9, 12]: 54 ± 4% | response vs control in vivo at 60 mg/kg [9, 12]: 51 ± 4% | response vs control in vivo at 10 mg/kg ([10]; 10 mg/kg/day ip): 48 ± 5% | response vs control in vivo at 40 mg/kg ([10]; 40 mg/kg/day ip): 44 ± 6% | response vs control in vivo at 60 mg/kg ([10]; 60 mg/kg/day ip): 55 ± 6%

Source: patent publication US4689326A, “Process for controlling hyperlipidemia” (Research Corporation, priority 1985, dated 1987)
